Reference: patent publication US20150337351A1, “METHODS OF MICROORGANISM IMMOBILIZATION” (priority 2014, published 2015)

How the values were obtained:
E. coli 25922 (Ecol) = assay: Plate-based disk diffusion tests, sensitive strain; assay type: cell-based, Escherichia coli; conditions: blood agar lawn plates, antibiotic disk, overnight at 35° C.
Procedure: (§1) Several nutrient agar plating methods employing antibiotics, other chemicals, and one or more species of bacteria have been devised to study these mechanisms. The most basic of these tests, the disk-diffusion method, employs a single test strain of bacteria which is used to create a uniform layer or lawn when grown. A disk-containing antibiotic is placed on the inoculated plate and the plate is then incubated to grow the lawn. In cases where the strain is sensitive to the antibiotic, a zone of no growth is observed around the disk. The distance from the disk to the edge of this zone is an indicator of the level of resistance to the antibiotic present in the disk, based on how far the antibiotic can diffuse into the nutrient medium. A variation on this test is to employ a second disk or drop of fluid near the antibiotic disk that contains a chemical that can affect the antibiotic response. Differences between the zone in areas near the chemical and away from the chemical can indicate the type of resistance mechanism at work in the test. In this case, the chelating agent ethylenediamine tetraacetic acid (EDTA) (Sigma-Aldrich) can be used to test for the presence of a class of antibiotic resistance enzyme called metallo-beta-lactamase, which is inhibited by EDTA. The positive result for this test is a larger zone of inhibition near the EDTA indicating reduced effectiveness of the enzyme. […]

[1] = system: Pseudomonas aeruginosa IHMA 519749 (Paer); assay: Biosensor mixed species diffusion assay (immobilized cells, microscopic detection), growth of resistant strain; assay type: cell-based; conditions: for Paer growth?: CAZ 16 (16 μg/mL), MHA 0.850% agar, 4 hours
Procedure: (§2) A mixed species diffusion variation of Hodge test using a biosensor with immobilized cells and microscopic detection was performed using the same bacterial strains. Heavy suspensions of Ecol and Paer were prepared in L-histidine buffer from fresh overnight blood agar plates. Heavy suspensions were diluted in normal saline to produce 0.5 McFarland suspensions, noting the volumes of each suspension required and using the same volumes to produce 10^8 cfu/mL suspensions of each strain in L-histidine. These suspensions were further diluted to create […] and 2×10^5 cfu/mL suspensions for heavy and moderate density working samples. The working samples were then diluted 1:1 in 2 mM L-DOPA for EKC.
(§3) The strains were next introduced to a biosensor for EKC, immobilization, and detection. Paer suspensions were loaded first, placing 5 uL in the exit port side (to maintain the resistant Paer isolate in one half of each channel) of each biosensor flowcell channel to cover one half of the flowcell. Six flowcells were loaded with each concentration. EKC was performed for 5 minutes at 1.5V, and then all flowcells were washed with two aliquots of 160 μL 1 mM L-DOPA (from the entry port). Ecol suspensions were next loaded, introducing 20 μL of cells suspension from the entry port to cover the full flowcell. Six flowcells were loaded with each concentration. EKC was performed for 5 minutes at 1.5V, and all flowcells washed with 160 μL of 1/10 MHB. The manner in which the cells were introduced and captures created a site comprising Ecol cells that were distal from any Paer cells (i.e., on the entry port side of the flowcell), as well as Ecol cells that were proximal to the Paer cells (i.e., on the exit port side of the flowcell).
(§4) Antibiotic media were prepared for immobilization and inhibition testing as follows. […] An immobilization medium source plate was prepared in the detection system and maintained at 45° C. The source plate wells were loaded with 20 μL of the 10× stocks and MHB without antibiotic for growth controls. The sample cassette was placed in the detection system and maintained at 40° C. A 180 uL volume of 0.944% MHA was added to each well of the source plate and mixed, and 100 uL of pre-immobilization immobilizing medium (with an agar concentration of 0.850%) was withdrawn and introduced to a flowcell in accordance with the experimental design. The loaded biosensor was allowed to equilibrate for 5 minutes, and was then removed and cooled for 5 minutes to induce the agar immobilizing agent to change to solid phase. The flowcell ports were then sealed, and growth, imaging, and analysis were performed, with examination of each flowcell for growth of Paer, examination of the distal portion of each flowcell for growth of Ecol in the absence of Paer (distal sensitivity), and examination of the proximal portion of each flowcell for growth of Ecol in the presence of Paer (proximal resistance), indicative of a positive mixed species resistance due to diffusion of metallo-beta-lactamase.
(§5) In order to test for enzyme-mediated cross-species resistance effects, a method for was devised to test a sensitive strain, Escherichia coli ATCC 25922 (Ecol), in the presence of a resistant strain, Pseudomonas aeruginosa IHMA 519749 (Paer) in the immobilized format. The method involved first immobilizing the resistant strain on the surface of a portion of each test flowcell of the cassette (approximately half) and then immobilizing the sensitive (sentinel) strain on the surface of the full flowcell including the area containing the resistant strain. This strategy provides an internal control for treatment effects on the sentinel strain in an area far from the resistant strain along with an area where close-field effects can be observed in the same flowcell. […]

[2] = system: Escherichia coli ATCC 25922 (Ecol); assay: Biosensor mixed species diffusion assay (immobilized cells, microscopic detection), growth of sentinel strain; assay type: cell-based; conditions: for Mixed species resistance factor diffusion? / Ecol growth in distal site? / Ecol growth in proximal site?: CAZ 16 (16 μg/mL); for Ecol growth in distal site?: distal from Paer; for Ecol growth in proximal site?: proximal to Paer
Procedure: as §2, §3, §4, §5

[3] = system: P. aeruginosa 519749 (Paer); assay: Plate-based disk diffusion tests, resistant strain; assay type: cell-based, Pseudomonas aeruginosa; conditions: blood agar lawn plates, antibiotic disk, overnight at 35° C.
Procedure: as §1

[4] = Flowcell 5, Ecol 10^6/Paer 10^6
[5] = Flowcell 6, Ecol 10^6/Paer 10^5
[6] = Flowcell 7, Ecol 10^5/Paer 10^6
[7] = Flowcell 8, Ecol 10^5/Paer 10^5
[8] = Flowcell 5, Ecol 10^6/Paer 10^6, 4 hours
[9] = Flowcell 6, Ecol 10^6/Paer 10^5, 4 hours
[10] = Flowcell 7, Ecol 10^5/Paer 10^6, 4 hours
[11] = Flowcell 8, Ecol 10^5/Paer 10^5, 4 hours

SMILES: CC(C)(O/N=C(\C(=O)N[C@@H]1C(=O)N2C(C(=O)[O-])=C(C[n+]3ccccc3)CS[C@H]12)c1csc(N)n1)C(=O)O [CAZ, ceftazidime]
- Susceptibility of Ecol strain in plating-based tests (E. coli 25922 (Ecol)): sensitive
- Paer growth morphology and rate under antibiotic vs growth control ([1]; CAZ at 16 μg/mL, immobilized in MHA, proximal site): same morphology and growth rate as the growth control condition
- Paer growth? [1, 4]: Yes
- Paer growth? [1, 5]: Yes
- Paer growth? [1, 6]: Yes
- Paer growth? [1, 7]: Yes
- Ecol growth and morphology under antibiotic (time-lapse images) ([2]; CAZ at 16 μg/mL, immobilized in MHA, 4 hours): slight growth or elongation of the single cell with later fading and in many colonies complete lysis
- Mixed species resistance factor diffusion? [2, 4]: No
- Ecol growth in distal site? [2, 8]: No
- Ecol growth in proximal site? [2, 8]: No
- Mixed species resistance factor diffusion? [2, 5]: No
- Ecol growth in distal site? [2, 9]: No
- Ecol growth in proximal site? [2, 9]: No
- Mixed species resistance factor diffusion? [2, 6]: No
- Ecol growth in distal site? [2, 10]: No
- Ecol growth in proximal site? [2, 10]: No
- Mixed species resistance factor diffusion? [2, 7]: No
- Ecol growth in distal site? [2, 11]: No
- Ecol growth in proximal site? [2, 11]: No
- Resistance of Paer isolate in plating-based tests [3]: high resistance
- Zone of inhibition, Paer isolate [3]: no zone of inhibition observed
